Results on three compounds are retold here after US20230321085A1, “COMPOUND FOR USE IN THE TREATMENT OF DRY MOUTH” (ASAHI PHARMA CO., LTD., priority 2020, published 2023).

In one data set the test system is awake rats. Put plainly: effect on salivation in awake rats (oral administration). The class given is in vivo, rat. Particulars: for duration of effect on salivation: oral administration to awake rats. As for the experimental part:
Pilocarpine therefore alleviates the dry mouth symptoms, but it leads to hyperhidrosis as a further side effect. Moreover, experiments in rats have shown that the effect of pilocarpine on salivation is only short-lived and that initial salivation levels are approached after about 60 minutes (FIG. 1).
Moreover, experiments have shown that its effect on salivation is long-lasting (FIG. 2 as well as FIGS. 3, 4 and 5).

In data set [1] the test system is healthy non-elderly male and female subjects. Nature of the data set: single ascending oral dose clinical study of the compound of the invention (first part). The data set is classed as in vivo, human. Particulars: single oral dose 1, 3, 10, 30, 100, 150 mg. How it is done: In the first part of a randomized, subject- and investigator-blinded, placebo-controlled, single ascending oral dose, parallel group study comprising of 7 cohorts (cohorts 1.1 to 1.7) the compound of the invention was administered at dose levels of 1, 3, 10, 30, 100, and 150 mg. Each cohort consisted of 8 healthy non-elderly male and female subjects who were randomized to receive the compound or matching placebo in a 3:1 ratio.
After a screening period of 21 days, eligible subjects who had signed an informed consent form (ICF) to participate in the study were residential for a single treatment period of 5 days/4 nights. Subjects were admitted to the clinical unit on day −1. After randomization on day 1, subjects received a single oral dose of the compound or matching placebo under fasting. Each cohort was completed with an end-of-study visit, which took place 5 to 9 days after the last pharmacokinetic sample had been collected (or early discontinuation from the study).

For data set [2], the system named is healthy non-elderly and elderly male and female subjects. Nature of the data set: multiple ascending oral dose clinical study of the compound of the invention (second part). The data set is classed as in vivo, human. The conditions noted are these: multiple oral doses 10, 30, 100, 150 mg. How it is done:
The second part of the study investigated, multiple ascending oral doses in 4 cohorts (cohorts 2.1 to 2.4). Each cohort consisted of 12 healthy non-elderly male and female subjects, one optional cohort (cohort 2.5) consisting of 12 healthy nonelderly male and female subjects and one cohort (cohort 2.6) consisting of 12 healthy elderly male and female subjects who were randomized to receive the compound or matching placebo in a 3:1 ratio.
Actual dose levels were 10, 30, 100 and 150 mg of the compound (cohorts 2.1 to 2.4, respectively). The optional cohort 2.5 was not enrolled. The actual dose level for the elderly cohort (cohort 2.6) was 150 mg of the compound.
Sentinel dosing was employed for all cohorts. The first 2 subjects within a cohort (1 subject received the compound and 1 subject received matching placebo) were dosed at least 5 minutes apart. These 2 subjects were monitored for safety for 48 hours after receiving the first dose while dosing was continued. The remaining 10 subjects (8 with the compound and 2 with matching placebo) were divided into 2 sub-cohorts and were dosed at least 48 hours after the first 2 subjects with 48 hours between the 2 sub-cohorts.

Data set [3] is described as follows: clinical study with a reference M3 PAM (similar to first study in Example 2). The conditions noted are these: dose levels of 1, 3, 10, 30 and 90 mg, FIG. 6. The class given is in vivo, human. How it is done: In a study similar to the first study in Example 2, a known M3 positive allosteric modulator reference compound (example 8 of EP 2 963 036) with the following structure
was administered in dose levels of 1, 3, 10, 30 and 90 mg.

The subject of the next data set is healthy subjects. Nature of the data set: Phase 1 study of the effect of pilocarpine on salivary secretion in healthy subjects. The class given is in vivo, human. Particulars: for participants reporting hyperhidrosis as side effect: periods 1 to 4. As for the experimental part: A Phase 1 study to investigate the effect of pilocarpine on salivary secretion was conducted in 12 healthy subjects. The study was conducted as a randomized, subject- and investigator-blinded, placebo-controlled, oral dose clinical study using a 5-way balanced extra period design. Pilocarpine capsules containing 2.5 mg were administered orally (1 capsule for a 2.5 mg dose, 2 capsules for a dose of 5.0 mg pilocarpine and 4 capsules for a dose of 10 mg pilocarpine). Subjects were admitted to the clinical unit on day 1 and were residential for a period of 6 days and 5 nights. Subjects were randomized to 1 of 4 treatment sequences on day 1 prior to study drug administration. Each study period was approximately 1 day and subjects received the different oral doses of the study drug (pilocarpine or placebo to match) in periods 1 through 5. There was a 4-hour saliva collection period following every dose and a washout period of at least 24 hours between doses. To assess the pharmacodynamic effect of pilocarpine on saliva secretion, saliva samples were collected over 5-minute intervals from pre-dose until 4 hours post-dose at the timepoints 0.5, 0.75, 1.0, 1.5, 2.0, 3.0 and 4.0 h.

As for `C[C@@H]1CCCN1Cc1sc(NC(=O)c2cnc(N3CCN(CCC(=O)O)[C@@H](C)C3)cn2)nc1-c1cc(Cl)cs1` [compound of the invention], in the data set with awake rats, the “duration of effect on salivation” value was at least 8 h. The “hyperhidrosis as a side effect” value in data set [1] and in data set [2] was “not reported” each time. Besides, the salivary secretion rates result in data set [1] (FIG. 4) and in data set [2] (FIG. 5) was “increased salivary secretion rates” throughout.

With `CC[C@@H]1CCCN1Cc1sc(NC(=O)c2cnc(N3CCC(C(=O)O)CC3)cn2)nc1-c1ccc(OC)c(C(F)(F)F)c1` [example 8 of EP 2 963 036], the impact on salivation entry in data set [3] is “do not significantly impact salivation”.

As for `CC[C@@H]1C(=O)OC[C@@H]1Cc1cncn1C` [pilocarpine], in the data set with awake rats, the “duration of effect on salivation” value is at most 1 h. Also, the “time after which initial salivation levels are approached” value with awake rats (rats, FIG. 1) is “about 60 minutes”. Besides, the sweating result in the data set on healthy subjects (clinically relevant doses (5 mg and 10 mg qd)) is given as “a significant number of the patients suffered from sweating”. In addition, the effect on salivation result in the data set with healthy subjects (human trials, 2.5, 5 and 10 mg pilocarpine) is listed as “increased salivation”. The “participants reporting hyperhidrosis as side effect” value in the data set with healthy subjects (pilocarpine dose of 5 mg) was determined as 8.3%; in the data set on healthy subjects (pilocarpine dose of 10 mg) it was 50%.
